Laboratory results as given in PubChem BioAssay AID330 (DTP/NCI, 2004).
“And” between values parts separate entries of the source, which are not always exact repeats. Identical values can stand only once. Toxic doses and inconclusive results are not listed. How the source made its calls: active means survival T/C of 150% or more; inactive means T/C below 125% in these data.

Tested on: P388 leukemia ip, CD2F1 mice, survival T/C
Test: NCI In Vivo Anticancer Drug Screen. Data for tumor model P388 Leukemia (intraperitoneal) in CD2F1 (CDF1) mice
Conditions: endpoint: median survival time, higher = longer survival
How it was run: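 Mice carrying the transplanted tumor received test compound or vehicle. Survival was recorded in each group, and the value is the treated-group measurement divided by that of the vehicle-treated control group.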

[1] = dose: 12.5 mg/kg/injection, schedule: Q01DX009 (ip), vehicle: saline
[2] = dose: 25.0 mg/kg/injection, schedule: Q01DX009 (ip), vehicle: saline
[3] = dose: 50.0 mg/kg/injection, schedule: Q01DX009 (ip), vehicle: saline
[4] = dose: 100.0 mg/kg/injection, schedule: Q01DX009 (ip), vehicle: saline
[5] = dose: 200.0 mg/kg/injection, schedule: Q01DX009 (ip), vehicle: saline
[6] = dose: 50.0 mg/kg/injection, schedule: Q01DX009 (ip), vehicle: Klucel (hydroxypropylcellulose) (HPC)
[7] = dose: 60.0 mg/kg/injection, schedule: Q01DX005 (ip), vehicle: saline with Tween-80
[8] = dose: 120.0 mg/kg/injection, schedule: Q01DX005 (ip), vehicle: saline with Tween-80
[9] = dose: 240.0 mg/kg/injection, schedule: Q01DX005 (ip), vehicle: saline with Tween-80
[10] = dose: 50.0 mg/kg/injection, schedule: Q01DX009 (ip), vehicle: saline with Tween-80
[11] = dose: 100.0 mg/kg/injection, schedule: Q01DX009 (ip), vehicle: saline with Tween-80
[12] = dose: 50.0 mg/kg/injection, schedule: Q01DX005 (ip), vehicle: Klucel (hydroxypropylcellulose) (HPC)
[13] = dose: 100.0 mg/kg/injection, schedule: Q01DX005 (ip), vehicle: Klucel (hydroxypropylcellulose) (HPC)

Measured: T/C

O=C1C=CC(=O)N1c1ccc2c(c1)oc(=O)c1ccccc12
inactive: [1] 95 % of control | [2] 92 % of control | [3] 90 % of control | [4] 100 % of control | [5] 99 % of control | dose: 400.0 mg/kg/injection, schedule: Q01DX009 (ip), vehicle: saline 110 % of control

CC(C)Cc1cc(C(F)(F)F)nc(NNc2nc(CC(C)C)cc(C(F)(F)F)n2)n1
inactive: [6] 90 % of control | dose: 100.0 mg/kg/injection, schedule: Q01DX009 (ip), vehicle: Klucel (hydroxypropylcellulose) (HPC) 87 % of control

COc1ccc(C(c2cc3c(cc2O)OCO3)N2CCCCC2)cc1 (stereo unspecified)
inactive: [7] 114 % of control | [8] 112 % of control | [9] 121 % of control

CCOc1cc2c(cc1Cc1cc(OC)c(OC)c(OC)c1)OCO2
inactive: dose: 60.0 mg/kg/injection, schedule: Q01DX005 (ip), vehicle: Klucel (hydroxypropylcellulose) (HPC) 91 % of control | dose: 120.0 mg/kg/injection, schedule: Q01DX005 (ip), vehicle: Klucel (hydroxypropylcellulose) (HPC) 98 % of control | dose: 240.0 mg/kg/injection, schedule: Q01DX005 (ip), vehicle: Klucel (hydroxypropylcellulose) (HPC) 86 % of control

CCN(CC)CCNC(=S)NNc1nc(C)ccc1[N+](=O)[O-]
inactive: dose: 12.5 mg/kg/injection, schedule: Q01DX009 (ip), vehicle: Klucel (hydroxypropylcellulose) (HPC) 99 % of control | dose: 25.0 mg/kg/injection, schedule: Q01DX009 (ip), vehicle: Klucel (hydroxypropylcellulose) (HPC) 95 % of control | [6] 87 % of control and 97 % of control

O=c1c(Cl)c2oc3ccc([N+](=O)[O-])cc3nc-2c(Cl)c1Cl
inactive: [10] 109 % of control | [11] 107 % of control

O=C(NNc1ccccc1)c1ccccc1Cl
inactive: [2] 101 % of control | [3] 105 % of control | [4] 97 % of control | [5] 98 % of control

COC(=O)c1ccc(SCC(=O)c2ccc([N+](=O)[O-])o2)cc1
inactive: dose: 50.0 mg/kg/injection, schedule: Q01DX009 (ip), vehicle: suspension in saline 88 % of control | dose: 100.0 mg/kg/injection, schedule: Q01DX009 (ip), vehicle: suspension in saline 97 % of control

COC(=O)c1nc(N)nc(C(=O)OC)c1C(=O)/C=C/c1ccccc1
inactive: [7] 100 % of control | [8] 98 % of control

O=C1OC2CCCC2C12C(=O)O[C@@H]1CCC[C@@H]12 (mixture of isomers)
inactive: [7] 97 % of control | [8] 99 % of control | [9] 99 % of control

CCNC(=O)OOC(C)(C)C
inactive: [3] 102 % of control | [4] 101 % of control

NC(=O)CC1OC(=O)Cc2cc3c(c(O)c21)C(=O)c1c(O)cccc1C3=O (stereo unspecified)
inactive: dose: 0.75 mg/kg/injection, schedule: Q01DX009 (ip), vehicle: DMSO 109 % of control | dose: 1.5 mg/kg/injection, schedule: Q01DX009 (ip), vehicle: DMSO 107 % of control | dose: 3.0 mg/kg/injection, schedule: Q01DX009 (ip), vehicle: DMSO 107 % of control | dose: 6.0 mg/kg/injection, schedule: Q01DX009 (ip), vehicle: DMSO 107 % of control

Clc1ccc(-c2ncnc3c2Cc2ccccc2-3)cc1
inactive: dose: 100.0 mg/kg/injection, schedule: Q04DX003 (ip), vehicle: saline with Tween-80 104 % of control | dose: 200.0 mg/kg/injection, schedule: Q04DX003 (ip), vehicle: saline with Tween-80 100 % of control | dose: 400.0 mg/kg/injection, schedule: Q04DX003 (ip), vehicle: saline with Tween-80 104 % of control

c1ccc2[nH]c(CN(CCN(Cc3nc4ccccc4[nH]3)Cc3nc4ccccc4[nH]3)Cc3nc4ccccc4[nH]3)nc2c1
inactive: dose: 1.56 mg/kg/injection, schedule: Q01DX005 (ip), vehicle: DMSO 104 % of control | dose: 3.12 mg/kg/injection, schedule: Q01DX005 (ip), vehicle: DMSO 106 % of control | dose: 6.25 mg/kg/injection, schedule: Q01DX005 (ip), vehicle: DMSO 105 % of control | dose: 12.5 mg/kg/injection, schedule: Q01DX005 (ip), vehicle: DMSO 107 % of control | dose: 25.0 mg/kg/injection, schedule: Q01DX005 (ip), vehicle: DMSO 108 % of control

C[Si]1(C)CC[Si](C)(C)OS(=O)(=O)CS(=O)(=O)O1
inactive: [12] 100 % of control | [13] 105 % of control

CCCCCC(CN(C)C)C(=O)/C=C/c1ccc(O)cc1 (stereo unspecified)
inactive: [1] 88 % of control | [2] 89 % of control | [3] 101 % of control and 93 % of control | [4] 113 % of control

NCCC(=O)OC1CCCc2c(O)c3c(c(O)c21)C(=O)c1ccccc1C3=O (stereo unspecified)
inactive: dose: 3.12 mg/kg/injection, schedule: Q01DX009 (ip), vehicle: water 103 % of control | dose: 6.25 mg/kg/injection, schedule: Q01DX009 (ip), vehicle: water 94 % of control | dose: 12.5 mg/kg/injection, schedule: Q01DX009 (ip), vehicle: water 100 % of control | dose: 25.0 mg/kg/injection, schedule: Q01DX009 (ip), vehicle: water 93 % of control | dose: 50.0 mg/kg/injection, schedule: Q01DX009 (ip), vehicle: water 93 % of control

CCCCOc1cccc2c1C(=O)c1c(O)c3c(c(O)c1C2=O)C[C@@](O)(C(C)=O)C[C@@H]3OC1CC(N)C(O)C(C)O1 (stereo partly specified)
inactive: dose: 3.13 mg/kg/injection, schedule: Q04DX003 (ip), vehicle: water 117 % of control and 120 % of control | dose: 6.25 mg/kg/injection, schedule: Q04DX003 (ip), vehicle: water 113 % of control and 117 % of control | dose: 12.5 mg/kg/injection, schedule: Q04DX003 (ip), vehicle: water 115 % of control | dose: 50.0 mg/kg/injection, schedule: Q04DX003 (ip), vehicle: water 89 % of control and 90 % of control

CC(=O)CC(=O)CCCCCCC(=O)O
inactive: [10] 103 % of control | [11] 100 % of control | dose: 200.0 mg/kg/injection, schedule: Q01DX009 (ip), vehicle: saline with Tween-80 100 % of control

O=C1[O][Sn]2([Cl])[NH]C1C[S]2 (stereo unspecified)
inactive: [12] 100 % of control | [13] 102 % of control

O=C1c2ccccc2C(=O)c2c(NCCC3CCCN4CCCCC34)cccc21 (stereo unspecified)
inactive: [12] 94 % of control | [13] 97 % of control | dose: 200.0 mg/kg/injection, schedule: Q01DX005 (ip), vehicle: Klucel (hydroxypropylcellulose) (HPC) 96 % of control

C=CCC(C(C)=O)C(C)=NCCN=C(C)C(CC=C)C(C)=O.[Cu] (stereo unspecified)
inactive: dose: 6.25 mg/kg/injection, schedule: Q01DX005 (ip), vehicle: saline with Tween-80 110 % of control | dose: 12.5 mg/kg/injection, schedule: Q01DX005 (ip), vehicle: saline with Tween-80 96 % of control

CC(O)CO (stereo unspecified)
inactive: dose: 1.56 % in 0.5 ml injection vol, schedule: Q01DX009 (ip), vehicle: water 112 % of control | dose: 3.12 % in 0.5 ml injection vol, schedule: Q01DX009 (ip), vehicle: water 119 % of control | dose: 6.25 % in 0.5 ml injection vol, schedule: Q01DX009 (ip), vehicle: water 110 % of control and 119 % of control | dose: 12.5 % in 0.5 ml injection vol, schedule: Q01DX009 (ip), vehicle: water 111 % of control and 113 % of control | dose: 25.0 % in 0.5 ml injection vol, schedule: Q01DX009 (ip), vehicle: water 104 % of control and 110 % of control | dose: 50.0 % in 0.5 ml injection vol, schedule: Q01DX009 (ip), vehicle: water 88 % of control

COc1ccc(/C=C\Cc2cc3c(cc2OCCO)OCO3)cc1
inactive: [7] 101 % of control | [8] 94 % of control | [9] 98 % of control

COc1ccc(C2C3CCCC(C(c4ccc(OC)cc4)N2C)C32NC(=O)NC2=O)cc1 (stereo unspecified)
inactive: [7] 90 % of control | [8] 90 % of control | [9] 91 % of control
